Test results published in US4707475A, “Agent for lowering serum prolactin levels” (priority 1985, dated 1987).

Experiments:
[1] = tested on: dopamine autoreceptors (DA-autoreceptors); conditions: cited from earlier work; for selectivity as DA-autoreceptor agonist: compared with B-HT 920, literature
DA-receptors = conditions: cited from earlier work; for action as DA agonist: Gudelsky et al.
prolactin = conditions: Gudelsky 1983; cited from earlier work
prolactin (PRL) = assay: Lowering of blood and serum levels of prolactin (general statement); conditions: in vivo
[2] = Tolerability (general statement); conditions: in vivo
[3] = tested on: endogenous dopamine synthesis in the brain; conditions: in vivo, Anden et al. 1983; cited from earlier work
prolactin level = assay: Prolactin level in blood of 6 healthy male subjects after 150 μg B-HT 920 (PROLRIA-100 radioimmunological method); type: in vivo, healthy male subjects (human); set-up: unit not given here
Procedure: The compound B-HT 920 is tested for its effect on PRL-reduction as follows. The tests are carried out with 6 healthy male subjects ranging in age from 24 to 34, each subject being given 150 μg of B-HT 920. Blood samples are taken from each subject at intervals of 0, 1, 2, 3 and 5 hours. The prolactin level in the sample is determined by the known PROLRIA-100 radioimmunological method of the National Insitute of the Radioelements, 6220 Fleurs, Belgium. The following table contains the results found for each subject at the 1 hour intervals shown.

Q: For `CN1CCc2cccc3c2[C@H]1Cc1ccc(O)c(O)c1-3` [apomorphine], which “selectivity as DA-autoreceptor agonist” value [1] is on record?
A: not selectively active as DA-autoreceptor agonists

Q: And the “action on DA-receptors and DA-autoreceptors” value (DA-receptors; well known)?
A: acts both on DA-receptors and also on DA-autoreceptors

Q: With `CCCN1CCCC(c2cccc(O)c2)C1` (stereo not shown) [3-PPP] as the compound, how does the prolactin inhibiting activity (prolactin) read?
A: prolactin inhibiting activity

Q: What about the “selectivity as DA-autoreceptor agonist” value [1] of the same compound?
A: not selectively active as DA-autoreceptor agonists

Q: What about the “action as DA agonist” value (DA-receptors) of the same compound?
A: act preferentially as DA agonists

Q: Which results are given for `CN(C)C1CCc2cc(O)c(O)cc2C1` (stereo not shown) [TL-99]?
A: prolactin inhibiting activity (prolactin): prolactin inhibiting activity; selectivity as DA-autoreceptor agonist [1]: not selectively active as DA-autoreceptor agonists; action as DA agonist (DA-receptors): act preferentially as DA agonists; postsynaptic activity (DA-receptors; effect on the DA-receptors, Pastor et al. 1983): possibly has a postsynaptic activity

Q: For `C=CCN1CCc2nc(N)sc2CC1` [compound A, 6-allyl-2-amino-5,6,7,8-tetrahydro-4H-thiazolo-[4,5-d]azepine], which “effect on blood and serum levels of prolactin (PRL)” value (prolactin (PRL)) is on record?
A: lower the blood and serum levels of prolactin (PRL)

Q: And the tolerability [2]?
A: well tolerated

Q: With `C=CCN1CCc2nc(N)sc2CC1.Cl.Cl` [B-HT 920, 6-allyl-2-amino-5,6,7,8-tetrahydro-4H-thiazolo-[4,5-d]azepine dihydrochloride] as the compound, how does the “effect on endogenous dopamine synthesis” value [3] read?
A: inhibits endogenous dopamine synthesis in the brain

Q: What about the prolactin level (prolactin level; subject 1, 1 hour) of the same compound?
A: 2.56

Q: And the prolactin level (prolactin level; subject 1, 2 hours)?
A: 0.52

Q: And the prolactin level (prolactin level; subject 1, 3 hours)?
A: 2.52

Q: What about the prolactin level (prolactin level; subject 1, 5 hours) of the same compound?
A: 3.26

Q: And the prolactin level (prolactin level; subject 1, time 0)?
A: 3.33

Q: And the prolactin level (prolactin level; subject 2, 1 hour)?
A: 2.85

Q: What about the prolactin level (prolactin level; subject 2, 2 hours) of the same compound?
A: 0.69

Q: And the prolactin level (prolactin level; subject 2, 3 hours)?
A: 0.52

Q: And the prolactin level (prolactin level; subject 2, 5 hours)?
A: 2.25

Q: And the prolactin level (prolactin level; subject 2, time 0)?
A: 3.86

Q: What about the prolactin level (prolactin level; subject 3, 1 hour) of the same compound?
A: 4.15

Q: What about the prolactin level (prolactin level; subject 3, 2 hours) of the same compound?
A: 4.92

Q: What about the prolactin level (prolactin level; subject 3, 5 hours) of the same compound?
A: 1.85

Q: And the prolactin level (prolactin level; subject 3, time 0)?
A: 4.22

Q: What about the prolactin level (prolactin level; subject 4, 1 hour) of the same compound?
A: 4.52

Q: What about the prolactin level (prolactin level; subject 4, 2 hours) of the same compound?
A: 7.89

Q: What about the prolactin level (prolactin level; subject 4, 5 hours) of the same compound?
A: 4.11

Q: What about the prolactin level (prolactin level; subject 4, time 0) of the same compound?
A: 5.04

Q: And the prolactin level (prolactin level; subject 5, 1 hour)?
A: 7.19

Q: What about the prolactin level (prolactin level; subject 5, 2 hours) of the same compound?
A: 1.37

Q: And the prolactin level (prolactin level; subject 5, 3 hours)?
A: 3.43

Q: What about the prolactin level (prolactin level; subject 5, 5 hours) of the same compound?
A: 2.89

Q: What about the prolactin level (prolactin level; subject 5, time 0) of the same compound?
A: 5.00

Q: What about the prolactin level (prolactin level; subject 6, 1 hour) of the same compound?
A: 7.59

Q: And the prolactin level (prolactin level; subject 6, 2 hours)?
A: 1.57

Q: And the prolactin level (prolactin level; subject 6, 5 hours)?
A: 4.33

Q: What about the prolactin level (prolactin level; subject 6, time 0) of the same compound?
A: 6.59

Q: And the “effect on dopamine autoreceptors” value ([1]; Anden et al. 1982)?
A: selective agonistic effect on dopamine autoreceptors
